Laboratory results from patent publication US20060213838A1, “Elution test method and apparatus” (SHIMADZU CORPORATION, priority 2005, published 2006).

Assays:
[1] = change with time of residual concentration of specific component A in test liquid (HPLC); assay type: physicochemical; settings: 50 mM phosphoric acid buffer solution pH6.8, 37° C., initial 0.1 mg/mL
Procedure: The specific component A is an unstable pharmaceutical in an elution test under neutral condition and is sodium rabepranazole. The test liquid used to the elution test is a 50 mM phosphoric acid buffer solution (pH6.8, 37° C.) in order to neutralize the elution condition for the specific component A.

[2] = elution test of the preparation by absorbance measurement method; assay type: physicochemical; settings: preparation C containing impurity component B, six specimens
Excerpt: The following describes a method for determining the specific component A alone while eliminating the influence of the impurity component B that hinders determination from the test liquid into which the specific component A and the impurity component B are eluted from the preparation C
The wavelengths to be set are 234 nm (λ1) and 287 nm (λ2) as isosbestic point wavelengths in a system including the specific component A and its decomposed matter in the preparation C. Assuming that the absorbances of the specific component A as A234nm(t) and A287nm(t) and the absorbances of the impurity component B as B234nm(t) and B287nm(t), the absorbances of the synthesis spectrum C234nm(t) and C287nm(t) will be represented as follows. C234nm(t)=A234nm(t)+B234nm(t) (3) C287nm(t)=A287nm(t)+B287nm(t) (4) Considering the spectrum of the impurity component B, the ratio of absorbance of the wavelengths of 234 nm and 287 nm is constant and independent of time (or concentration). This obtains the expression (5). B234nm(t)/B287nm(t)=k (5)
k and k′ are constants. From the absorbance measurement values at two isosbestic point wavelengths of the elution test liquid, the concentration of the specific component A alone is obtained by solving the simultaneous equation of the expression (7) and (8). […]

Q: Which “time for residual concentration to decrease to half the initial concentration” value [1] does the source give for `COCCCOc1ccnc(C[S+]([O-])c2nc3ccccc3[n-]2)c1C.[Na+]` (stereo not shown) [specific component A, sodium rabepranazole] here?
A: Its value is at most 40 min.

Q: What about the “residual concentration of the specific component A” value ([1]; within 40 minutes) of the same molecule?
A: The value was 0.05 mg/mL.

Q: What about the elution ratio ([2]; double-wavelength absorbance measurement method (234 nm and 287 nm)) of the same molecule?
A: Its elution ratio is “around 100%”.

Q: And the elution ratio ([2]; single-wavelength absorbance measurement method (234 nm))?
A: The elution ratio was 140%.
